Here are results for four compounds from US12447151B2, “Alkyne derivative, preparation method for same, and uses thereof” (ZHEJIANG HISUN PHARMACEUTICAL CO., LTD., priority 2019, dated 2025).

Structures are written as SMILES.

Series [1] concerns the target recombinant human PI3Kδ (Homo sapiens (Human), UniProt O00329). Nature of the series: Inhibitory activity on PI3K kinase (ADP-Glo Kinase Assay). (In general: ADP-Glo first removes unused ATP, then detects ADP through luciferase.)
From the text: (§1) The following method is used to determine the degree of inhibition of recombinant human PI3Kα, PI3Kβ, PI3Kγ and PI3Kδ kinase activity by the compounds of the present invention under in vitro conditions. Promega's ADP-Glo Kinase Assay Kit (Cat. No. V9102) was used in this method. The above kit was a luminescence kinase detection kit, which was used to detect the ADP content produced by the kinase reaction. The ADP content was positively correlated with the kinase activity. By measuring the ADP content, the inhibition of the compound on the activity of PI3Kα, PI3Kβ, PI3Kγ and PI3Kδ kinases was reflected. […] Recombinant human PI3Kα, PI3Kγ, and PI3Kδ were purchased from Invitrogen, and PI3Kβ was purchased from Promega (category numbers were PI3Kα: PV4788; PI3Kβ: V1751; PI3Kγ: PV4786 and PI3Kδ: PV6451 separately).
Series [2] has as its target recombinant human PI3Kβ (Homo sapiens (Human), UniProt P42338). The series is described as above.
From the text: as §1
Series [3] is described as follows: Metabolic stability in liver microsomes. The class given is in vitro ADME. Conditions: human liver microsomes 0.5 mg/mL, 1 μM compound, NADPH 1 mM; read-out: half-life period/(T1/2, min). Here is the method: The test compound was co-incubated with human liver microsomes, and coenzyme NADPH was added to initiate the reaction. At 0, 5, 15, 30 and 60 minutes, 20 μL of incubation solution was taken out and transferred to 200 μL of acetonitrile containing internal standard to stop the reaction. After protein precipitation, centrifugation was performed at 3,700 rpm for 10 minutes and the supernatant was taken. The supernatant was diluted 1:1 with water and analyzed by LC-MS/MS method. According to the elimination half-life of the test compound in the incubation system, the in vitro intrinsic clearance rate was calculated. Midazolam was used as the internal reference compound and incubated for two aliquots in parallel.
The ratio of peak area of the analyte/internal standard (Aanalyte/AIS) was obtained by the instrument. The remaining percentage (% Control) was calculated from the ratio of Aanalyte/AIS in the non-zero time point sample to the zero time point sample. Ln (% Control) versus incubation time was plotted and a linear fit was performed. The clearance constant (k, min^−1), the clearance half-life (T1/2, min) and the in vitro intrinsic clearance rate (CLint, mL·min^−1·mg^−1 proteins) of the test compound were calculated by the following equations.
Cprotein(mg·mL^−1) refers to the concentration of microsomal protein in the incubation system.

Series [4] deals with recombinant human PI3Kα (Homo sapiens (Human), UniProt P42336). Nature of the series: Inhibitory activity on PI3K kinase (ADP-Glo Kinase Assay).
The target in series [5] is recombinant human PI3Kγ (Homo sapiens (Human), UniProt P48736). Described as above. The class given is biochemical. The settings on record: for IC50: ADP-Glo, ATP 10 μM. The text has this:
The following method is used to determine the degree of inhibition of recombinant human PI3Kα, PI3Kβ, PI3Kγ and PI3Kδ kinase activity by the compounds of the present invention under in vitro conditions. Promega's ADP-Glo Kinase Assay Kit (Cat. No. V9102) was used in this method. The above kit was a luminescence kinase detection kit, which was used to detect the ADP content produced by the kinase reaction. The ADP content was positively correlated with the kinase activity. By measuring the ADP content, the inhibition of the compound on the activity of PI3Kα, PI3Kβ, PI3Kγ and PI3Kδ kinases was reflected. For detailed experimental operations, please refer to the kit instructions. Recombinant human PI3Kα, PI3Kγ, and PI3Kδ were purchased from Invitrogen, and PI3Kβ was purchased from Promega (category numbers were PI3Kα: PV4788; PI3Kβ: V1751; PI3Kγ: PV4786 and PI3Kδ: PV6451 separately).

Series [6] is described as follows: Oral pharmacokinetics in SD rats. Conditions: male, rat, plasma, Oral (5 mg/kg); for AUC(0-inf): read-out: Area under the curve AUC0-∞; for bioavailability: read-out: Bioavailability F; for half-life: read-out: Half-life period T1/2 (converted); for Cmax: read-out: Plasma concentration Cmax. The class given is in vivo. Here is the method:
Using SD rats as test animals, the rats were intragastrically administrated with the compound of the present invention. LC/MS/MS method was used to determine the drug concentration in the plasma at different times to study the pharmacokinetic characteristics of the compound of the present invention in rats.
An appropriate amount of the compound to be tested was weighed, and 0.5% sodium carboxymethylcellulose (containing 0.05% Tween80) was added. The mixture was vortexed, and sonicated so that the solid was ultrasonically dispersed uniformly to obtain a suspension. 100 μL×2 of the filtered preparation were aspirated, and placed in 1.5-mL EP tubes, stored at […]. The concentration of the preparation was 0.5 mg/mL.
Nine healthy adult male SD rats were fasted overnight and then intragastrically administered (dosage of administration was 5 mg/kg), and fed 4 hours after administration.
About 0.2 mL of blood was collected from the jugular vein at 0.083 hours, 0.25 hours, 0.5 hours, 1 hour, 2 hours, 4 hours, 8 hours, 12 hours, and 24 hours after administration, and heparin sodium was used for anticoagulation. The collected blood samples were placed on ice and centrifuged to separate the plasma (centrifugation conditions: 1500 g, 10 minutes). The collected plasma was stored at −40 to −20° C. before analysis. The LC-MS/MS method was used to determine the content of the test compound in the plasma of SD rats after intragastric administration of different compounds.

The nature of series [7]: Oral pharmacokinetics in ICR mice. The class given is in vivo. Conditions: male, mouse, plasma, Oral (5 mg/kg); for AUC(0-inf): read-out: Area under the curve AUC0-∞; for bioavailability: read-out: Bioavailability F; for Cmax: read-out: Plasma concentration Cmax. Here is the method: Using ICR mice as the test animals, the mice were intragastrically administrated with the compound of the present invention. LC/MS/MS method was used to determine the drug concentration in the plasma at different times to study the pharmacokinetic characteristics of the compound of the present invention in mice.
An appropriate amount of the compound to be tested was weighed, and 0.5% sodium carboxymethylcellulose (containing 0.05% Tween80) was added. The mixture was vortexed, and sonicated so that the solid was ultrasonically dispersed uniformly to obtain a suspension; 100 μL×2 of the preparation were aspirated, and placed in 1.5-mL EP tubes, stored at 2 to 8° C. The concentration of the preparation was 0.5 mg/mL.
Twenty-seven healthy adult ICR male mice were fasted overnight and then intragastrically administered (dosage of administration was 5 mg/kg), and fed 4 hours after administration.
At 0.083 hours, 0.25 hours, 0.5 hours, 1 hour, 2 hours, 4 hours, 8 hours, 12 hours, and 24 hours after administration, 80 μL of blood was collected from the orbital vein. About 0.08 mL of blood was collected, and placed in EDTA-K2 anticoagulation tube. […] The collected plasma was stored at −40 to −20° C. before analysis. The […] method was used to determine the content of the test compound in the plasma of ICR mice after intragastric administration of different compounds.

Chain of recombinant human PI3Kγ (P48736 whole entry): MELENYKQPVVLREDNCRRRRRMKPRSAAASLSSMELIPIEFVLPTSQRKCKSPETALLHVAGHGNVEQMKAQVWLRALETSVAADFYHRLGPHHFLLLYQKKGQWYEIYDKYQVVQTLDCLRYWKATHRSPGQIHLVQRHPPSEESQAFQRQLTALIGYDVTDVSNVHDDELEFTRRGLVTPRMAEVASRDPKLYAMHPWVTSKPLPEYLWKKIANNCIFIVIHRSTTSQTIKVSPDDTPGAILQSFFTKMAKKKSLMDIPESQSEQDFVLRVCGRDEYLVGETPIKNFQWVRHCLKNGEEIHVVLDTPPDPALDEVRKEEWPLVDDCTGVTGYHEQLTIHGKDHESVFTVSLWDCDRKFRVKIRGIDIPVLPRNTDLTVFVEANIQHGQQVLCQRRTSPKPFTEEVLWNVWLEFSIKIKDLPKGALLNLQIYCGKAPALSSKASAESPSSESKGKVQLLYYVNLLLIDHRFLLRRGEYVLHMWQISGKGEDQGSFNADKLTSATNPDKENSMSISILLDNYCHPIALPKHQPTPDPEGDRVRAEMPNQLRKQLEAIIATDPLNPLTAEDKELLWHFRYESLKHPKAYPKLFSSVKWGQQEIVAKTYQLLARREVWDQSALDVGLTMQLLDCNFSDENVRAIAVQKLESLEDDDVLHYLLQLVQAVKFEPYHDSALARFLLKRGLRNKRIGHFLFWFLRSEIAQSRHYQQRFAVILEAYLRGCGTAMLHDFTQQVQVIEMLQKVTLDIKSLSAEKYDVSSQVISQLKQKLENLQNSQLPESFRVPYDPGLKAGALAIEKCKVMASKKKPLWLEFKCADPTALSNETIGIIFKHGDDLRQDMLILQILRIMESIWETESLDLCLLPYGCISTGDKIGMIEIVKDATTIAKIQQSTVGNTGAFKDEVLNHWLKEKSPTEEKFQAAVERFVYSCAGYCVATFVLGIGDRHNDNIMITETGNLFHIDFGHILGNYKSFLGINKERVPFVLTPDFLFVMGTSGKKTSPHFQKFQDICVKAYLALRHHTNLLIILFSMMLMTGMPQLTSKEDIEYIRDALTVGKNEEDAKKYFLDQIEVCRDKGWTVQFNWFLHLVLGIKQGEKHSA
Chain of recombinant human PI3Kβ (P42338 whole entry): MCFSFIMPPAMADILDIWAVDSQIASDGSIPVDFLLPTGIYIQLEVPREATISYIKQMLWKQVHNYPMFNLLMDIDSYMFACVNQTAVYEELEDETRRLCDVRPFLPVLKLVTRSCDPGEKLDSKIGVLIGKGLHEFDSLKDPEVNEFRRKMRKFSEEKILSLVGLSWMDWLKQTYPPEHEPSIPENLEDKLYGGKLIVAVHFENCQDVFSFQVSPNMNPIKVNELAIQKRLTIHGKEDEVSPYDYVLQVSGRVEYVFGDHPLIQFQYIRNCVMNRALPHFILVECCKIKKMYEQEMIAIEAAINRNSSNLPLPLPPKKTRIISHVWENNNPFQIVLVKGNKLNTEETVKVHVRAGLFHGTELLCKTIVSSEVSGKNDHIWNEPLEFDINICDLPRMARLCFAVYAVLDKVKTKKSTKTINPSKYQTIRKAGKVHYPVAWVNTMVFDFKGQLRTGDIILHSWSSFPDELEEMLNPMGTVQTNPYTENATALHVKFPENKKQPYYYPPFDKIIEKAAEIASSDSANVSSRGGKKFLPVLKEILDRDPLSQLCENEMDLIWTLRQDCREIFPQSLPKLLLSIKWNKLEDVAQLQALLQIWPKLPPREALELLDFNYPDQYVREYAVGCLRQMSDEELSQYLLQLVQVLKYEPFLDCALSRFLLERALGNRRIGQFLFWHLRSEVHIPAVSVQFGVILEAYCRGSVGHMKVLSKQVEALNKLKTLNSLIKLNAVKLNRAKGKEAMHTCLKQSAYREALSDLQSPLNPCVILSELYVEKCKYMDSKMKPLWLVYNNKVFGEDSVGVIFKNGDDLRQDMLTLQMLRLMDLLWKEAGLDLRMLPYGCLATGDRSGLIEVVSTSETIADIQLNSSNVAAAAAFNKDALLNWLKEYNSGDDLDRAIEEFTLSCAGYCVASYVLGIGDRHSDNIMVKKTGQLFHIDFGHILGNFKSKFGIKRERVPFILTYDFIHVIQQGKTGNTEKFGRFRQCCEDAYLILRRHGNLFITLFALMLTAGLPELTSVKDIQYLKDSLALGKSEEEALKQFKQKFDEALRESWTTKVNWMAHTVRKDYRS
Chain of recombinant human PI3Kβ (P27986 whole entry partner): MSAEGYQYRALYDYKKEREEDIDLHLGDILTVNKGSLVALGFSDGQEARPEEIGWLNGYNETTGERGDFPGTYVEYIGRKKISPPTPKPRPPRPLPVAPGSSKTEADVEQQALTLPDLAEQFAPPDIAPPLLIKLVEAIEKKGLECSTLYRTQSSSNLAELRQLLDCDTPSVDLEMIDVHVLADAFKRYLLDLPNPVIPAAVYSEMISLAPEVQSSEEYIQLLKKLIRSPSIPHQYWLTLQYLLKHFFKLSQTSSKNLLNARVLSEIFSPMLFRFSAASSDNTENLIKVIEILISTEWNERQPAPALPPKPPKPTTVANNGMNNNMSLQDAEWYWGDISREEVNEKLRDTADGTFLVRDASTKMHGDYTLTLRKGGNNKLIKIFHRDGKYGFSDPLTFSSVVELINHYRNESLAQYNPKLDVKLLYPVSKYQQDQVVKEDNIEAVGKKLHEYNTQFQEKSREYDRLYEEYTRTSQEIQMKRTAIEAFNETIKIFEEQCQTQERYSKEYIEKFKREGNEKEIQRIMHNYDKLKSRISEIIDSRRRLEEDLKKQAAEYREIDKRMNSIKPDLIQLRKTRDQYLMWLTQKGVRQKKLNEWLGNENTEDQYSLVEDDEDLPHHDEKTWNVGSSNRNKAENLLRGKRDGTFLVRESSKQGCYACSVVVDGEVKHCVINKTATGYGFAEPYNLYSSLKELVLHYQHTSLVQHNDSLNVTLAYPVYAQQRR
Chain of recombinant human PI3Kδ (O00329 whole entry): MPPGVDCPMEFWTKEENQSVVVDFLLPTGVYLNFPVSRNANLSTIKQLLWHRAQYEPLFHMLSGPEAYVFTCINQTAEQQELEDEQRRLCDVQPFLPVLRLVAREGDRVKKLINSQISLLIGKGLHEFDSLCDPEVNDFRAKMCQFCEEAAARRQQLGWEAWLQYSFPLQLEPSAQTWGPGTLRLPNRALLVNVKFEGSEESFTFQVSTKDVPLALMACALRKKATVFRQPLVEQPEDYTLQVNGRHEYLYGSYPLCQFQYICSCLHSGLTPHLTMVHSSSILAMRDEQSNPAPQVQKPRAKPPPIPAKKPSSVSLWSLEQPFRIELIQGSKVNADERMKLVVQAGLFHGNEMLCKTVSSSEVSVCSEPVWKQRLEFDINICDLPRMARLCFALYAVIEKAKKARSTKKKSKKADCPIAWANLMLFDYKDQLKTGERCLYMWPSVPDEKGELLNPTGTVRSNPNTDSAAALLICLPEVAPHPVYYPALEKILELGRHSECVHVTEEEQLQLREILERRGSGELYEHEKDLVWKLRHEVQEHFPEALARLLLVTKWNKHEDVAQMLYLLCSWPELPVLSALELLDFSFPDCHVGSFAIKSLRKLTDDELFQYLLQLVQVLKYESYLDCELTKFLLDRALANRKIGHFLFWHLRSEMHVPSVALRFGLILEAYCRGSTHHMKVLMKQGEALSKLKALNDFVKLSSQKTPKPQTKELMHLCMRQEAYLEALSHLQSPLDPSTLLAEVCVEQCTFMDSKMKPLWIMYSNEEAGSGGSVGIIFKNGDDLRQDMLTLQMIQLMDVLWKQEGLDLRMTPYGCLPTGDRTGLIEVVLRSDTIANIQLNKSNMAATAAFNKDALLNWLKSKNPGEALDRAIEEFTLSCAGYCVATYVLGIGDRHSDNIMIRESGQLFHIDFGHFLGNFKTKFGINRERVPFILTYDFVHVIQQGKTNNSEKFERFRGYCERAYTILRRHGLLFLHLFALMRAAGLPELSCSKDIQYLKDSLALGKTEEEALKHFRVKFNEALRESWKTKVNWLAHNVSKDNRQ
Chain of recombinant human PI3Kδ (P27986 whole entry partner): as the sequence (P27986 whole entry partner) above
Chain of recombinant human PI3Kα (P42336 whole entry): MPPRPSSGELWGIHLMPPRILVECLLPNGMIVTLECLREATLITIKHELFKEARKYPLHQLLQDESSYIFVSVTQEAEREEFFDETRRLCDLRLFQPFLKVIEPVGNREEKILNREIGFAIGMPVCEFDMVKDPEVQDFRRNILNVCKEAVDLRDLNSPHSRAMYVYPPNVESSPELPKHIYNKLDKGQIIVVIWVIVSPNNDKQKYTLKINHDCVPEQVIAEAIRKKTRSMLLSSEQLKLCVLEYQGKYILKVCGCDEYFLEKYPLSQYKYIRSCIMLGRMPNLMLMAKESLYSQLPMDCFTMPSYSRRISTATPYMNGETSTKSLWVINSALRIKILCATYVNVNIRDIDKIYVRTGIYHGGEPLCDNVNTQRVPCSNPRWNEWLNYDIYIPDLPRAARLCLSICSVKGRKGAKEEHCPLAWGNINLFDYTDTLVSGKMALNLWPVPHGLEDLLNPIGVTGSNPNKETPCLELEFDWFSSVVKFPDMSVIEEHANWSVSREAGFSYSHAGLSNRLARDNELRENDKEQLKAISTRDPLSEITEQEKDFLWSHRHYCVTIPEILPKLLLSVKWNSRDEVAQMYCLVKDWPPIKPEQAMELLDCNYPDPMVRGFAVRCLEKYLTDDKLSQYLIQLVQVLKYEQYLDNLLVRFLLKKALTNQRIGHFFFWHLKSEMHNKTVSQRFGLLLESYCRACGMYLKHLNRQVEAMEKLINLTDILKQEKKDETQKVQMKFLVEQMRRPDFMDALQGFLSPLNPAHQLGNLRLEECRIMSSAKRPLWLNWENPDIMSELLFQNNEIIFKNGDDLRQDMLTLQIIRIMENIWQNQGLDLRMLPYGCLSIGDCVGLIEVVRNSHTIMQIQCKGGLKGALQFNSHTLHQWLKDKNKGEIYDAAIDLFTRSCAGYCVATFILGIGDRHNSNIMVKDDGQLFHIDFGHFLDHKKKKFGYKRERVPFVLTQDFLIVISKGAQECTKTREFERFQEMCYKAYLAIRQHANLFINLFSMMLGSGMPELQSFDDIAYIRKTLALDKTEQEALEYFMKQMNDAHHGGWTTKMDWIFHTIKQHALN
Chain of recombinant human PI3Kα (P27986 whole entry partner): as the sequence (P27986 whole entry partner) above

A word on the IC50: it is the concentration that inhibits the measured activity by half. Consider `C[C@H](NC(=O)c1c(N)nn2cccnc12)c1nc2ccc(F)c(C#Cc3cnn(C4CC4)c3)c2c(=O)n1-c1ccccc1` [Example 3, (S)-2-amino-N-(1-(5-((1-cyclopropyl-1H-pyrazol-4-yl)ethynyl)-6-fluoro-4-oxo-3-phenyl-3,4-dihydroquinazolin-2-yl)ethyl)pyrazolo[1,5-a]pyrimidine-3-carboxamide], for which the IC50 in series [1] is 195 nM; in series [2], 552 nM; in series [4], 143 nM; in series [5], 0.7 nM. Moreover, in series [3], the half-life at 1 μM was found to be 574 min.

What is called bioavailability is dose-corrected exposure relative to a reference, in per cent. `C[C@H](NC(=O)c1c(N)nn2cccnc12)c1cc2cccc(C#Cc3cnn(C)c3)c2c(=O)n1-c1ccccc1` [IPI-549, reference compound]: in series [6], the AUC(0-inf) was found to be 1950 ng·h/mL, the bioavailability came out at 10%, the half-life was 144 min and the Cmax amounted to 358 ng/mL. Besides, in series [3], the half-life at 1 μM came to 195 min. In addition, in series [7], the AUC(0-inf) is 2660 ng·h/mL, the bioavailability is 20% and the Cmax is 484 ng/mL.

As for `C[C@H](NC(=O)c1c(N)nn2cccnc12)c1cc2cccc(C#Cc3cnn(C4CC4)c3)c2c(=O)n1-c1ccccc1` [Example 1, (S)-2-amino-N-(1-(8-((1-cyclopropyl-1H-pyrazol-4-yl)ethynyl)-1-oxo-2-phenyl-1,2-dihydroisoquinolin-3-yl)ethyl)pyrazolo[1,5-a]pyrimidine-3-carboxamide], the IC50 was 461 nM in series [1], 237 nM in series [2], 101 nM in series [4] and 0.46 nM in series [5]. In addition, the figures for the AUC(0-inf) in series [6] and in series [7] were 3940 ng·h/mL and 7470 ng·h/mL, respectively. The bioavailability worked out at 27% in series [6] and 33% in series [7]. Moreover, the half-life in series [6] was 306 min; in series [7] (read-out: Half-life period T½ (converted)), 186 min. The values for the Cmax in series [6] and in series [7] were 587 ng/mL and 898 ng/mL, respectively. Also, the half-life at 1 μM in series [3] was found to be 11700 min. Besides, the “IC50 (PI3Kα)/IC50(PI3Kγ)” value in series [5] (kinase selectivity for PI3Kγ over PI3Kα) is recorded as 220. Besides, in series [5] (kinase selectivity for PI3Kγ over PI3Kβ), the “IC50 (PI3Kβ)/IC50(PI3Kγ)” value was found to be 515. In addition, the “IC50 (PI3Kδ)/IC50(PI3Kγ)” value in series [5] (kinase selectivity for PI3Kγ over PI3Kδ) stood at 1002.

On to `C[C@H](NC(=O)c1c(N)nn2cccnc12)c1nc2cccc(C#Cc3cnn(C)c3)c2c(=O)n1-c1ccccc1` [Compound 21 in WO2015051244A1, reference compound], for which, in series [3], the half-life at 1 μM was 113 min.
